Measured values reported in US6358921B1, “Antimicrobial peptide compositions and method” (priority 1996, dated 2002).
Where two headings read alike, the source gives them in different places.

What was measured:
[1] = system: B. subtilis; format: cell-based, Bacillus subtilis
Outline: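 Liquid-broth microdilution: overnight LB cultures diluted and added to serial peptide dilutions at final 5×10^5 CFU/mL, incubated overnight at 37 °C. MIC is the lowest concentration inhibiting growth; C. albicans a clinical isolate, S. epidermidis clinical, C. xerosis environmental.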

[2] = Displacement of dansyl-polymyxin from LPS; format: binding, P. aeruginosa; settings: read-out: LPS binding affinity: peptide concentration to displace 50% of dansyl-polymyxin B from LPS; Tables 1, 4, 7
Outline: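 Peptides titrated into 3 μg/mL P. aeruginosa LPS with 2.5 μM dansyl-polymyxin (~90% site saturation) in 5 mM sodium HEPES, pH 7.0; fluorescence decrease recorded. I50 (50% probe displacement) taken from the x-intercept of a double-reciprocal plot of percent inhibition versus inhibitor concentration.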

[3] = system: P. aeruginosa H188; format: cell-based, Pseudomonas aeruginosa
Outline: (§1)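 Antimicrobial activity is measured by a liquid-broth assay in LB at 37 °C overnight, starting from 5×10^5 CFU/mL. Values are minimal inhibitory concentrations, i.e. the lowest concentration that stops growth.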

[4] = system: E. faecalis; format: cell-based, Enterococcus faecalis
Outline: as §1

[5] = system: S. epidermidis; format: cell-based, Staphylococcus epidermidis
Outline: as §1

[6] = system: C. Albicans; format: cell-based, Candida albicans
Outline: as §1

[7] = system: S. aureus K147; format: cell-based, Staphylococcus aureus
Outline: (§2)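 MIC read-out, μg/ml, lowest peptide concentration with no growth after overnight incubation at 37 °C in LB liquid broth. Inoculum 5×10^5 CFU/mL from overnight cultures. Therapeutic index = concentration giving complete blood-cell lysis at 4 h divided by MIC.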

[8] = system: S. aureus SAP0017; format: cell-based, Staphylococcus aureus
Outline: as §2

[9] = system: P. aeruginosa H187; format: cell-based, Pseudomonas aeruginosa
Outline: (§3)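 Liquid-broth microdilution: overnight LB cultures at 37 °C, diluted to a final inoculum of 5×10^5 CFU/mL with serial peptide dilutions, incubated overnight at 37 °C. MIC (μg/ml) is the lowest concentration that inhibited growth. Therapeutic index is the concentration giving complete hemolysis at 4 h divided by the MIC.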

[10] = system: E. coli DC2; format: cell-based, Escherichia coli; settings: DC2
Outline: as §3

[11] = system: C. xeroses; format: cell-based, Corynebacterium xerosis
Outline: as §1

[12] = system: human erythrocytes; assay: Hemolytic activity; format: cell-based
Protocol: Serial dilutions of the peptides in saline were prepared in round bottom microtitre plates using 100 μL volumes. Red blood cells were diluted with saline to 1/25 packed volume of cells and 50 μL added to each well. Plates were incubated with rocking at 37° C., and the concentration required for complete lysis determined visually after 4 h.

[13] = system: E. coli UB1005; format: cell-based, Escherichia coli; settings: UB1005
Outline: as §1

[14] = system: S. typhinurium C610; format: cell-based, Salmonella typhinurium
Outline: as §1

[15] = system: S. typhinurium C587; format: cell-based, Salmonella typhinurium
Outline: as §1

SMILES	Minimum Inhibitory Concentration (activity) [1] [µg/mL]	IC50 [2] [µM]	Minimum Inhibitory Concentration (activity) ([3]; H188) [µg/mL]	Minimum Inhibitory Concentration (activity) [4] [µg/mL]	Minimum Inhibitory Concentration (activity) [5] [µg/mL]	Minimum Inhibitory Concentration (activity) [6] [µg/mL]	Minimum Inhibitory Concentration (activity) [7] [µg/mL]	Minimum Inhibitory Concentration (activity) [8] [µg/mL]	Minimum Inhibitory Concentration (activity) ([9]; H187) [µg/mL]	Minimum Inhibitory Concentration (activity) [10] [µg/mL]	Minimum Inhibitory Concentration (activity) [11] [µg/mL]	Hemolytic activity: peptide concentration for 100% lysis of human erythrocytes [12] [µg/mL]	Minimum Inhibitory Concentration (activity) [13] [µg/mL]	Minimum Inhibitory Concentration (activity) [14] [µg/mL]	Minimum Inhibitory Concentration (activity) [15] [µg/mL]	also measured
CC(C)C[C@@H]1NC(=O)[C@H](C(C)C)NC(=O)[C@H](CC(C)C)NC(=O)[C@@H]2CCCN2C(=O)[C@@H](Cc2ccc(O)cc2)NC(=O)[C@H](C(C)C)NC(=O)[C@H](CC(C)C)NC(=O)[C@H](C(C)C)NC(=O)[C@H](CCCCN)NC(=O)[C@H](CCCCN)NC(=O)[C@@H]2CCCN2C(=O)[C@@H](Cc2ccc(O)cc2)NC(=O)[C@H](CCCCN)NC(=O)[C@H](CCCCN)NC1=O [GS14napol]	>200	98	9	75	25	37	>200	200	50	4	1.2	800	18	25	50	
CC(C)[C@@H]1NC(=O)[C@H](CCCCN)NC(=O)[C@H](C)NC(=O)[C@@H]2CCCN2C(=O)[C@@H](Cc2ccc(O)cc2)NC(=O)[C@H](C(C)C)NC(=O)[C@@H](CCCCN)NC(=O)[C@H](C)NC(=O)[C@H](CCCCN)NC(=O)[C@H](C(C)C)NC(=O)[C@@H]2CCCN2C(=O)[C@@H](Cc2ccc(O)cc2)NC(=O)[C@H](C)NC(=O)[C@H](CCCCN)NC1=O [L3/A3]	>200	243	75	>200	>200	>200	>200	>200	200	200	100	>800	200	100	>200	
CC(C)C[C@@H]1NC(=O)[C@H](CCCCN)NC(=O)[C@H](CC(C)C)NC(=O)[C@@H]2CCCN2C(=O)[C@@H](Cc2ccccc2)NC(=O)[C@H](CC(C)C)NC(=O)[C@@H](CCCCN)NC(=O)[C@H](CC(C)C)NC(=O)[C@H](CCCCN)NC(=O)[C@H](CC(C)C)NC(=O)[C@@H]2CCCN2C(=O)[C@@H](Cc2ccccc2)NC(=O)[C@H](CC(C)C)NC(=O)[C@H](CCCCN)NC1=O [Y2/F2 V3/L3]	6.2	25	3.1	1.5	2	3.1	9	9	12.5	2	1		9	12.5	35	Hemolytic activity: peptide concentration for 100% lysis of human erythrocytes ([12]; Tables 1, 4, 7): 12.5 µg/mL
CC(C)C[C@@H]1NC(=O)[C@H](CCCCN)NC(=O)[C@H](C(C)C)NC(=O)[C@H](CCCCN)NC(=O)[C@@H]2CCCN2C(=O)[C@@H](Cc2ccc(O)cc2)NC(=O)[C@H](CCCCN)NC(=O)[C@H](CC(C)C)NC(=O)[C@H](CCCCN)NC(=O)[C@H](C(C)C)NC(=O)[C@H](CCCCN)NC(=O)[C@@H]2CCCN2C(=O)[C@@H](Cc2ccc(O)cc2)NC(=O)[C@H](CCCCN)NC1=O [GS14inv]	>200	14	6.2	200	25	25	>200	200	12.5	0.8	0.8	>800	12.5	3.1	50	
CC(C)C[C@@H]1NC(=O)[C@H](CCCCN)NC(=O)[C@H](C(C)C)NC(=O)[C@H](CCCCN)NC(=O)[C@@H]2CCCN2C(=O)[C@@H](Cc2ccc(O)cc2)NC(=O)[C@H](CCCCN)NC(=O)[C@H](CC(C)C)NC(=O)[C@H](CCCCN)NC(=O)[C@H](C(C)C)NC(=O)[C@@H](CCCCN)NC(=O)[C@@H]2CCCN2C(=O)[C@@H](Cc2ccc(O)cc2)NC(=O)[C@H](CCCCN)NC1=O [GS14invK1]	>200	43	9	>200	100	200	>200	>200	12.5	25	6.2	>800	25	62	150	
CC(C)C[C@@H]1NC(=O)[C@H](CCCCN)NC(=O)[C@H](C(C)C)NC(=O)[C@@H]2CCCN2C(=O)[C@@H](Cc2ccc(O)cc2)NC(=O)[C@H](CCCCN)NC(=O)[C@H](CC(C)C)NC(=O)[C@H](C(C)C)NC(=O)[C@H](CCCCN)NC(=O)[C@H](CC(C)C)NC(=O)[C@@H]2CCCN2C(=O)[C@@H](Cc2ccc(O)cc2)NC(=O)[C@H](CCCCN)NC(=O)[C@H](C(C)C)NC1=O [GS14na]							>200	200		62		>800	37	12.5	100	Minimum Inhibitory Concentration (activity) ([1]; B. subtilis): >200 µg/mL; Minimum Inhibitory Concentration (activity) ([3]; P. aeruginosa H188): 18 µg/mL; Minimum Inhibitory Concentration (activity) ([4]; E. faecalis): 200 µg/mL; Minimum Inhibitory Concentration (activity) ([5]; S. epidermidis): 50 µg/mL; Minimum Inhibitory Concentration (activity) ([6]; C. Albicans): 100 µg/mL; Minimum Inhibitory Concentration (activity) ([9]; P. aeruginosa H187): 75 µg/mL; Minimum Inhibitory Concentration (activity) ([11]; C. xeroses): 1.5 µg/mL
